According to the NIST ThermoML archive (doi:10.1021/je060271a):

Conditions: 283.15 K, Liquid, Vibrating tube method

CCCCCC(=O)OCC(COC(=O)CCCCC)(COC(=O)CCCCC)COC(=O)CCCCC [pentaerythritol tetrahexanoate]
Conditions	mass density [kg/m3]
1506.3 kPa	1004.9
1520.4 kPa	1005.1
1534.6 kPa	1005.1
1551.6 kPa	1005.1
1566 kPa	1005.2
1580.3 kPa	1005
1737.7 kPa	1005.1
1752.5 kPa	1005.1
1815.1 kPa	1005.3
1862 kPa	1005.2
1876.2 kPa	1005.2
1889.8 kPa	1005.2
1905.4 kPa	1005.1
1918.9 kPa	1005.2
1932.5 kPa	1005.2
1949.3 kPa	1005.2
1963.5 kPa	1005.2
1978.6 kPa	1005.2
1993.5 kPa	1005.3
2005.3 kPa	1005.3
2024.6 kPa	1005.3
2039 kPa	1005.3
2053.8 kPa	1005.3
2068.7 kPa	1005.3
2086.4 kPa	1005.3
2102 kPa	1005.4
2118 kPa	1005.4
2136.7 kPa	1005.4
2153 kPa	1005.4
2165.7 kPa	1005.4
2185.6 kPa	1005.4
2205.4 kPa	1005.4
2292.8 kPa	1005.5
2303.8 kPa	1005.5
2314.9 kPa	1005.4
2328.2 kPa	1005.4
2339.2 kPa	1005.5
2350.1 kPa	1005.5
2363.3 kPa	1005.4
2374.2 kPa	1005.4
2385.1 kPa	1005.4
2398.1 kPa	1005.5
2409.2 kPa	1005.6
2420.2 kPa	1005.6
2433.2 kPa	1005.5
2443.9 kPa	1005.6
2455 kPa	1005.6
2468.4 kPa	1005.6
2479.7 kPa	1005.6
2490.8 kPa	1005.5
2502 kPa	1005.6
2515.9 kPa	1005.6
2526.8 kPa	1005.5
2552.3 kPa	1005.6
2576.1 kPa	1005.6
2587.9 kPa	1005.7
2601.9 kPa	1005.7
2613.9 kPa	1005.7
2626 kPa	1005.6
2640.3 kPa	1005.7
2652.7 kPa	1005.6
2664.9 kPa	1005.8
2679.3 kPa	1005.7
2692.1 kPa	1005.6
2704.8 kPa	1005.7
2717.4 kPa	1005.8
2732.7 kPa	1005.8
2745.7 kPa	1005.8
2756.3 kPa	1005.7
2768.9 kPa	1005.7
2784.7 kPa	1005.7
2800 kPa	1005.8
2826.3 kPa	1005.9
2841.9 kPa	1005.7
2869.2 kPa	1005.8
2883.2 kPa	1005.8
2897.6 kPa	1005.8
2911.3 kPa	1005.7
2927.9 kPa	1005.8
2942 kPa	1005.9
2956 kPa	1005.9
2973 kPa	1005.9
2987.2 kPa	1005.9
3001.4 kPa	1005.9
3015.3 kPa	1005.8
3032.1 kPa	1005.8
3046.9 kPa	1005.9
3061.4 kPa	1005.9
3079.7 kPa	1005.7
3094.3 kPa	1006
3108.7 kPa	1005.9
3123.8 kPa	1006
3141.8 kPa	1006
3157 kPa	1006
3172.3 kPa	1006
3187.9 kPa	1005.9
3203.2 kPa	1006
3221.5 kPa	1005.9
3236.8 kPa	1006.1
3337.6 kPa	1006.1
3353.6 kPa	1006.1
3404.7 kPa	1006.2
3956.5 kPa	1006.4
3974.5 kPa	1006.6
3996.3 kPa	1006.6
4014.4 kPa	1006.5
4032.7 kPa	1006.5
4054 kPa	1006.5
4072 kPa	1006.5
4090 kPa	1006.6
4111.5 kPa	1006.5
4129.7 kPa	1006.7
4147.7 kPa	1006.6
4165.7 kPa	1006.5
4186.7 kPa	1006.6
4204.2 kPa	1006.6
4221.8 kPa	1006.7
4239.5 kPa	1006.7
4260.6 kPa	1006.6
4277.8 kPa	1006.6
4294.9 kPa	1006.7
4314.8 kPa	1006.6
4331.6 kPa	1006.6
4348.2 kPa	1006.7
4364.2 kPa	1006.7
4383.5 kPa	1006.7
4399.6 kPa	1006.7
4414.7 kPa	1006.7
4432.7 kPa	1006.6
4448.3 kPa	1006.8
4462.4 kPa	1006.6
4476.2 kPa	1006.7
4489.5 kPa	1006.7
4504.9 kPa	1006.8
4517.6 kPa	1006.8
4530.4 kPa	1006.7
4542.7 kPa	1006.7
4556.9 kPa	1006.8
4568.3 kPa	1006.8
4579.5 kPa	1006.7
4590.6 kPa	1006.8
4604.1 kPa	1006.8
4613.3 kPa	1006.9
4626.1 kPa	1006.8
